# Reference: article PMC3989207, “Subchronic Toxicological Study of Two Artemisinin Derivatives in Dogs” (PLoS ONE, 2014)
# Experiments:
# [1] = system: beagle dogs; experiment: Electrocardiography in the 13-week repeated-dose dog study; format: in vivo; conditions: for Heart rate: 6 mg kg^-1 per day (ART p.o., ARM i.m.), vs control group
# Method: (§1) The first day of treatment was regarded as day one in the study. […] Oral administration was performed about 2 h after feeding. ARM was administered by a bolus intramuscular infusion through a 25-gauge needle at a constant volume of 2 ml kg^−1 once a day into the gluteal and infraspinous muscles. Two dogs of each sex from each group were allowed to recover without further treatment for an additional 4 weeks.
# Electrocardiograms were recorded using an Auto Electrocardiogram (ECG-9130P, Nihon Kohden Corporation, Japan). Recordings were taken from each dog, while conscious, every 2 weeks from week-1. Leads I, II, III, aVR, aVL and aVF were utilized. The electrocardiography (ECG) parameters included heart rate, PR, QRS and QT interval, and QRS and T wave amplitudes. As the PQ and QT intervals vary with heart rate, they were adjusted to an RR-interval of 500 ms, corresponding to a heart rate of 120 bpm using the following equation: QT500 = QT – 0.084×(RR – 500).
# [2] = system: beagle dogs; experiment: Severity grading of muscle tissue injury at the intramuscular injection site; format: in vivo, dog; conditions: for Severity of muscle tissue injury at the injection site: n=4
# Method: as §1
# (§2) Termination of treatment was scheduled to occur on weeks 4, 8 (two interim necropsies) and 13, followed by a 4-week recovery period. For pathological examinations, the animals were euthanized within 24 h of the final drug administration with sodium pentobarbital, followed by exsanguination via the femoral artery. A gross necropsy was performed, including a thorough visual examination of all the internal organs. Weights were obtained for the brain, heart, liver, spleen, lung, kidneys, adrenals, thyroid/parathyroids, thymus, pancreas and ovaries/testes/prostate, and organ-to-body weight ratios were calculated. For each animal, representative samples from approximately 48 organs and tissues were taken and fixed in neutral buffered 10% formalin, except for the sternum, which was retained in Helly’s fixative (1000 ml distilled water, 25 g potassium dichromate, 10 g sodium sulfate, 50 g mercuric chloride, 50 ml 40% formaldehyde). Histopathological sections of all samples were prepared by embedding in paraffin wax, multiple-sectioning and staining with hematoxylin and eosin (HE). Samples of the left ventricular myocardium, right lateral hepatic lobe and right kidney from two animals of each sex from each group were fixed immediately after exsanguination in 2.5% glutaraldehyde, post-fixed in 1.0% osmium tetroxide, and embedded in plastic. Ultrathin liver, kidney and heart sections were examined with a Hitachi H-600 transmission electron microscope (TEM). All other tissues were examined by light microscopy.
# Gross findings in the ART and ARM treatment groups were limited to the injection sites.
# [3] = system: beagle dogs; experiment: Pathologic (histopathological) examination of organs, brain and cardiac conduction system; format: in vivo, dog
# Method: as §1, §2
# After removal, the cardiac conduction system, including the sinoatrial node (SAN) and atrioventricular node (AVN), were selected by the Palate method. The brain was sectioned at multiple transverse levels to obtain susceptible brain regions. To improve the definition of the brain lesions, toluidine stains were applied on selected duplicate sections, and all preparations were examined under a light microscope. For pathologic examinations, degenerative neurons were evaluated on three randomly selected brain sections. The adjacent fields of neurons in each selected section were counted using a microscope at a magnification of 200×. […] The severity of the neuropathological lesions was defined as follows: the total number of neuropathological lesions per section area yielded a severity score from 0 to 4, where 0 = unaffected, 1 = minimally affected neurons with one degenerative cell per section, 2 = two degenerative cells per section, 3 = three degenerative cells per section and 4 = multiple degenerative areas per section.
# [4] = system: beagle dogs; experiment: Clinical observations; format: in vivo
# Method: as §1
# All dogs were assessed once daily for mortality and toxicological or other clinical signs, including behavioral changes (such as tremor, gait impairment, balance disturbance and auditory impairment), appetite, excreta (urinalysis for specific gravity, ketone bodies and pH), balance and coordination. Standard and acceptable veterinary health care practices were used during this evaluation to ensure good health of the animals.
# [5] = system: beagle dogs; experiment: Organ weights at necropsy; format: in vivo, dog
# Method: as §1
# (§3) Termination of treatment was scheduled to occur on weeks 4, 8 (two interim necropsies) and 13, followed by a 4-week recovery period. For pathological examinations, the animals were euthanized within 24 h of the final drug administration with sodium pentobarbital, followed by exsanguination via the femoral artery. A gross necropsy was performed, including a thorough visual examination of all the internal organs. Weights were obtained for the brain, heart, liver, spleen, lung, kidneys, adrenals, thyroid/parathyroids, thymus, pancreas and ovaries/testes/prostate, and organ-to-body weight ratios were calculated. For each animal, representative samples from approximately 48 organs and tissues were taken and fixed in neutral buffered 10% formalin, except for the sternum, which was retained in Helly’s fixative (1000 ml distilled water, 25 g potassium dichromate, 10 g sodium sulfate, 50 g mercuric chloride, 50 ml 40% formaldehyde). […]
# [6] = system: beagle dogs; experiment: Ultra-structural examination of liver, kidney and heart by transmission electron microscopy; format: in vivo, dog; conditions: weeks 4, 8 and 13; TEM
# Method: as §1, §3
# [7] = system: Dogs; design: method as in Classen et al., 1999 [30]; conditions: 20 mg kg^−1 per day, i.m. for 30 days, ref Classen et al., 1999 [30]; cited from earlier work
# [8] = system: Mouse; design: method as in Nontprasert et al., 2000 [42]; conditions: 300 mg kg^−1 per day, p.o. for 28 days, ref Nontprasert et al., 2000 [42]; cited from earlier work
# [9] = design: method as in PMID 11060779; conditions: cited from earlier work
# [10] = Week 4, 6 mg kg^-1 per day (ART p.o., ARM i.m.)
# [11] = Week 8, 6 mg kg^-1 per day (ART p.o., ARM i.m.)
# [12] = Week 13, 6 mg kg^-1 per day (ART p.o., ARM i.m.)
# [13] = Week 17 (after 4-week recovery)
# [14] = both treated groups, no significant differences
smiles,measurement,setting,value
"CO[C@H]1O[C@@H]2O[C@@]3(C)CC[C@H]4[C@H](C)CC[C@@H]([C@H]1C)[C@@]24OO3 [ARM, artemether]",Heart rate,[1]; Week 4,- (“-” = No effect)
same,Heart rate,[1]; Week 8,- (“-” = No effect)
same,Heart rate,[1]; Week 13,- (“-” = No effect)
same,"mean QT intervals (adjusted for heart rate, QT500)","[1]; week 3 until the final drug treatment, male and female dogs, vs vehicle control",prolonged
same,Severity of muscle tissue injury at the injection site,"[2]; W4, 6 mg kg^−1 i.m., grades 0 (no significant lesions) to 5 (severe)",2.25±0.87
same,Severity of muscle tissue injury at the injection site,"[2]; W8, 6 mg kg^−1 i.m., grades 0 to 5",2.67±0.78
same,Severity of muscle tissue injury at the injection site,"[2]; W13, 6 mg kg^−1 i.m., grades 0 to 5",3.92±1.08
same,Severity of muscle tissue injury at the injection site,"[2]; W17 (after 4-week recovery), grades 0 to 5",3.84±0.72
same,inflammation of muscle tissue at the injection site,"[2]; i.m. injection, vs vehicle control group",more severely inflamed than that in the vehicle control group
same,Cardiac conduction system foci (dogs affected/examined),[3]; [10],0
same,Extramedullary hematopoiesis (dogs affected/examined),[3]; [10],2/4
same,Hepatocyte necrosis (dogs affected/examined),[3]; [10],3/4
same,Inhibition of erythropoiesis (dogs affected/examined),[3]; [10],4/4
same,Neuronal necrosis (dogs affected/examined),[3]; [10],0
same,Tubular cell degeneration (dogs affected/examined),[3]; [10],4/4
same,Cardiac conduction system foci (dogs affected/examined),[3]; [11],0
same,Extramedullary hematopoiesis (dogs affected/examined),[3]; [11],3/4
same,Hepatocyte necrosis (dogs affected/examined),[3]; [11],2/4
same,Inhibition of erythropoiesis (dogs affected/examined),[3]; [11],2/4
same,Neuronal necrosis (dogs affected/examined),[3]; [11],2/4
same,Tubular cell degeneration (dogs affected/examined),[3]; [11],3/4
same,Cardiac conduction system foci (dogs affected/examined),[3]; [12],0
same,Extramedullary hematopoiesis (dogs affected/examined),[3]; [12],1/4
same,Hepatocyte necrosis (dogs affected/examined),[3]; [12],0
same,Inhibition of erythropoiesis (dogs affected/examined),[3]; [12],2/4
same,Neuronal necrosis (dogs affected/examined),[3]; [12],4/4
same,Tubular cell degeneration (dogs affected/examined),[3]; [12],2/4
same,Cardiac conduction system foci (dogs affected/examined),[3]; [13],0
same,Extramedullary hematopoiesis (dogs affected/examined),[3]; [13],0
same,Hepatocyte necrosis (dogs affected/examined),[3]; [13],0
same,Inhibition of erythropoiesis (dogs affected/examined),[3]; [13],0
same,Neuronal necrosis (dogs affected/examined),[3]; [13],1/4
same,Tubular cell degeneration (dogs affected/examined),[3]; [13],1/4
same,dogs with neuropathological abnormalities,"[3]; after the 4-week recovery period, mild damage",one of the four dogs
same,histological examination of sternal bone marrow,[3]; [14],mild inhibition of erythropoiesis and a decreased count of mature erythrocytes
same,spleen histology,[3]; [14],extramedullary hematopoiesis was observed in the spleen
same,mean severity score of the lesions in the brain,[3]; score 0 (unaffected) to 4 (multiple degenerative areas per section),2.14
same,light microscopy of liver sections,"[3]; some dogs, characterized as very mild",degenerative hepatocellular changes
same,histopathological changes in the kidneys,[3]; vs control groups,tubular epithelium vacuolation and necrosis
same,dogs with neuropathological abnormalities,"[3]; week 8, two of the four dogs examined",50%
same,dogs with neuropathological abnormalities,"[3]; week 13, four of the four dogs examined",100%
same,behavioral changes,[4]; 6 mg kg^-1 per day i.m. for 13 weeks,not observed
same,main clinical signs,"[4]; 6 mg kg^-1 per day i.m., after treatment for 4 weeks up to the end of the recovery period",skin thickening at the injection site and myonecrosis-like features
same,"absolute or relative weights of brain, heart, liver, spleen, lungs, kidneys, adrenals, thyroid/parathyroids, pancreas, ovaries, testes or prostate","[5]; 6 mg kg^-1 per day, vs relative controls",no statistically significant effects
same,thymus weight,"[5]; weeks 4 and 8, one of the two male dogs, i.m.",mild decrease
same,"ultra-structural findings in hepatocytes, myocardial cells and proximal tubules in the kidney",[6],Mitochondrial bending and distortion and swollen vacuoles
same,Effect (toxicology),[7],"Axonal damage in the cerebellar roof, pontine and vestibular nuclei, and in the raphe/ paralemniscal region; hypochromic, microcytic anemia"
same,Effect (toxicology),[8],Balance/gait disturbances and mortality
same,solubility character,[9],fat soluble
